Values quoted from earlier work as cited in US20060115514A1, “Chelating and binding chemicals to a medical implant, medical device formed, and therapeutic applications” (priority 2004, published 2006).

How the values were obtained:
restenosis = details: oral administration
[1] = system: neointimal formation after balloon injury; details: after balloon injury in rats

SMILES	incidence of adverse events (restenosis)	neointimal formation [1]
CO[C@H]1C[C@@H]2CC[C@@H](C)[C@@](O)(O2)C(=O)C(=O)N2CCCC[C@H]2C(=O)O[C@H]([C@H](C)C[C@@H]2CC[C@@H](O)[C@H](OC)C2)CC(=O)[C@H](C)/C=C(\C)[C@@H](O)[C@@H](OC)C(=O)[C@H](C)C[C@H](C)/C=C/C=C/C=C/1C [sirolimus]	higher incidence of adverse events	–
N=C(N)c1ccc2cc(OC(=O)c3ccc(N=C(N)N)cc3)ccc2c1 [FUT-175]	–	inhibits
